Source: US9555061B2, “Synthesis and analysis of compounds capable of inducing differentiation of human mesenchymal stems cells into hepatocytes” (National University Corporation Torrori University, priority 2011, dated 2017)

How the values were obtained:
[1] = tested on: UE7T-13 cells; experiment: RT-PCR of genes encoding liver-specific secretory proteins and cytokines (UE7T-13); type: cell-based, human; settings: hexachlorophene 0.8 μM or IC-2 15 μM; days 8, 16, 24
Description: Bone marrow-derived mesenchymal stem cells (UE7T-13 cells) were treated with a compound, hexachlorophene (H4625-25G; Sigma-Aldrich, Inc.) or IC-2. At that time, gene expression of each of liver-specific secretory proteins and cytokines was evaluated. […] This time point was set to day 0.
At the next day corresponding to day 1, the medium was changed to DMEM containing hexachlorophene at a final concentration of 0.8 μM or IC-2 at a final concentration of 15 μM. […] After that, the medium was replaced twice during 8 days, and the cells were subcultured every 8 days. Then, the similar operation was carried out until day 24. At days 8, 16, and 24 after the initiation of the induction, TRIzol (Invitrogen) was used to extract total RNA according to the attached instruction. After the extraction, deoxyribonuclease (Nippon Gene) was added, and the mixture was incubated at 37° C. for 30 min to remove DNA. In a reverse transcription reaction, SuperScriptII Reverse Transcriptase (Invitrogen) and Oligo(dT)15 primer were added to 1 μg of RNA to convert it into cDNA. In a RT-PCR method, the cDNA was diluted by 5 times. Next, 1 μl of the cDNA was used as a template. Then, rTaq DNA polymerase (TOYOBO) was used to amplify the cDNA. MQ water was used as a negative control. cDNA from Huh-7 or UE7T-13 cells was used as a positive control. […]

[2] = tested on: CD90+CD271+ bone marrow-derived mesenchymal stem cells; experiment: Urea assay in CD90+CD271+ bone marrow-derived mesenchymal stem cells; type: cell-based, human; settings: hexachlorophene 4 μM, PN-3-13 20 μM, IC-2 40 μM; day 8 plus 96 h ammonium chloride
Description: A urea assay was performed according to the following protocol. CD90^+CD271^+ bone marrow-derived mesenchymal stem cells were seeded on a 24-well plate at a cell density of 1.8×10^4 cells/cm^2. This day was designated as day 0. At day 1 corresponding to the next day, each medium was changed to a medium containing hexachlorophene (at a final concentration of 4 μM), HC-2 (at a final concentration of 20 μM), PN-3-13 (at a final concentration of 20 μM), IC-2 (at a final concentration of 40 μM), or 0.1% DMSO. At day 4, the medium was changed in a manner similar to that at day 1, and the cells were cultured until day 8. At day 8, the medium was removed, and replaced with a medium containing ammonium chloride (Nacalai Tesque) at a final concentration of 5 mM. The cells were further cultured for 96 h. At 96 h after the addition of ammonium chloride, levels of urea in the medium were determined using a QuantiChrom Urea Assay Kit (BioAssay Systems) according to the attached protocol by reading the absorbance at a wavelength of 520 nm with a microplate reader. The levels of urea were calculated based on a standard sample according to the attached calculation method. As a negative control for the urea assay, used were CD90^+CD271^+ bone marrow-derived mesenchymal stem cells that were seeded one day before the day of the immunostaining and were not subjected to the differentiation induction.

## (6S,9aS)-6-phenyl-8-naphthalen-1-ylmethyl-4,7-dioxo-hexahydro-pyrazino[1,2-a]pyrimidine-1-carbocylic acid benzylamide [IC-2]
[1]
  expression of a plurality of the liver-specific secretory proteins and cytokines: increased levels of expression
[2]
  cellular urea synthesis compared with negative control (0.1% DMSO): apparent increase
